What was measured:
[1] = 50° C., in pharmaceutical preparations; cited from earlier work
[2] = assay type: physicochemical; conditions: 0.5% (w/v) aqueous solution; for decomposition after light irradiation: pH about 6.3-7.2, D65 fluorescent lamp 13,000 Lx, room temperature, 14 days; for coloring of the aqueous solution after the light irradiation: D65 fluorescent lamp 13,000 Lx
Protocol: A 0.5% (w/v) aqueous solution of pyridoxine 3-β-D-glucoside (pH 6.7) in a volume of 0.3 ml was enclosed in a 1-ml volume glass ampoule, and irradiated with a D65 fluorescent lamp (Toshiba) for 14 days. The irradiation was performed at room temperature with an illumination of 13,000 Lx. Samples before the irradiation and after 1 day, 7 days and 14 days of the irradiation were analyzed by HPLC to measure a pyridoxine 3-β-D-glucoside content. A solution of pyridoxine hydrochloride of the same concentration (adjusted to pH 6.7) was treated in the same manner, and the results were compared. The HPLC measurement conditions were as follows.
Column: Inertsil ODS-3 ([…], ([…], φ4.6×150 mm, GL Science Inc.)
Eluent acetonitrile:0.1% (v/v) trifluoroacetic acid, 5 mM sodium 1-hexanesulfonate=1:9
Column temperature: 40° C.
Aqueous solutions (0.5% (w/v)) of pyridoxine 3-β-D-glucoside hydrochloride, pyridoxal 3-β-D-glucoside, pyridoxamine 3-β-D-glucoside, pyridoxine 3-β-D-galactoside, and pyridoxine hydrochloride (adjusted to pH 6.3 to 7.2 with HCl or NaOH) were each sealed in a volume of 0.3 ml in a 1-ml volume glass ampoule, and light irradiation and HPLC quantification were performed in the same manner as in Test Example 1. […] Test Example 4 (thermal stability of pyridoxine 3-β-D-glucoside hydrochloride and various 3-glycosides) […]

[3] = Thermal stability of aqueous solution kept at 50° C., HPLC; assay type: physicochemical; conditions: 0.5% (w/v) aqueous solution; for coloring of the aqueous solution after the warming: 50° C. for 90 days; for decomposed by warming: pH about 6.3-7.2, 50° C. for 90 days
Protocol: A 0.5% (w/v) aqueous solution of pyridoxine 3-β-D-glucoside (pH 6.7) in a volume of 0.3 ml was sealed in a 1-ml volume glass ampoule, and kept at 50° C. under light shielding. The sample was warmed for 90 days, and analyzed during the warming by HPLC (analysis conditions were the same as those applied in Test Example 1) to measure a pyridoxine 3-β-D-glucoside content. A solution of pyridoxine hydrochloride of the same concentration (adjusted to pH 6.7) was treated in the same manner, and the results were compared.
Aqueous solutions (0.5% (w/v)) of pyridoxine 3-β-D-glucoside hydrochloride, pyridoxal 3-β-D-glucoside, pyridoxamine 3-β-D-glucoside, pyridoxine 3-β-D-galactoside, pyridoxine hydrochloride, pyridoxal hydrochloride, and pyridoxamine hydrochloride (adjusted to pH 6.3 to 7.2 with HCl or NaOH) were each sealed in a volume of 0.3 ml in a 1-ml volume glass ampoule, […] in the same manner as in Test Example 2.
0.5% (w/v) Aqueous solutions of pyridoxine 3,4′-cyclic sodium phosphate and pyridoxine hydrochloride (adjusted to pH 6.5 to 6.8) were each sealed in a volume of 0.3 ml in a 1-ml volume glass ampoule, and warming at 50° C. and HPLC analysis were performed in the same manner as in Test Example 2.

mouse B16 melanoma cells [4] = assay: Test for melanin production suppression and cell survival rate in cultured cells; assay type: cell-based; parameters: key to Evaluation (whitening degree of B16 melanoma cells): +: whitening effect comparable to that of the control; ±: whitening effect a little weaker than that of the control; ×: no effect; −: test was not performed; conditions: for Evaluation (whitening degree of B16 melanoma cells): control 100 μg/ml kojic acid; for Cell growth rate: relative to control taken as 100%; for suppressing effect on melanin production: overall conclusion from the tables
Protocol: Cultured mouse B16 melanoma cells were used. An appropriate amount of MEM medium containing 10% FBS was added to wells of two 6-well plates, and the B16 melanoma cells were inoculated, and incubated at 37° C. with 5 volume % CO2. On the next day, a sample-containing solution was added so that the medium contained the vitamin B6 derivative (pyridoxine 3-β-D-glucoside or pyridoxine 3-β-D-glucoside hydrochloride) at a final solid concentrations shown in FIG. 20, and then mixed. On the 5th day of the culture, the medium was exchanged, and the sample-containing solution was again added. On the next day, the medium was removed, and for one plate, the cells were washed with phosphate buffer (pH 7.0), and then collected. Then, whitening degree of the cultured B16 melanoma cells was evaluated according to the criteria mentioned below by using 100 μg/ml kojic acid as a control. […] The cell growth rate is indicated with a relative ratio based on that of the control, which is taken as 100%.

mouse B16 melanoma cells [5] = assay: Melanin production suppression by combination with whitening agent (arbutin); assay type: cell-based; conditions: substance and arbutin each 100 μM, 5 days culture, intracellular melanin relative to solvent control
Protocol: Cultured mouse B16 melanoma cells were used. A vitamin B6 derivative (pyridoxine 3-β-D-glucoside) and arbutin (Wako Pure Chemical Industries) dissolved in purified water at given concentrations were each added to the medium at a concentration of 100 μM. With exchanges of the medium during the culture, the cells were cultured for 5 days, and then collected. The cell number was counted, and then intracellular melanin was quantified. As a control added with a solvent, the medium added with purified water was used. Based on the amount of the melanin observed for the control added with the solvent, which was taken as 1, the relative amount of intracellular melanin observed for each sample concentration was considered a melanin production ratio.

hairless mouse = conditions: 2% sample applied on the back 90 minutes before ultraviolet irradiation, 2 hours, 5 times/week, ten weeks; positive control DETAPAC
Protocol: It was evaluated whether or not the sample prepared by the following preparing method suppressed wrinkle formation caused by ultraviolet irradiation.
DETAPAC was used as a positive control.
Mice (10-week old) in each group consisting of 8 mice were applied with each of the aforementioned samples on the back 90 minutes before ultraviolet irradiation, and irradiated with ultraviolet rays of a fixed quantity (Toshiba FL20 S-BLB lamp) for 2 hours (5 times/week) over ten weeks to examine suppressing effect on wrinkle formation.
Wrinkle formation after the ultraviolet irradiation of ten weeks was graded in accordance with the “skin photoaging grades” mentioned below. The results were indicated as averages of the scores for eight mice.

[6] = final concentration 333.3 μg/mL

Cc1ncc(CO)c(CO[C@H]2O[C@H](CO)[C@@H](O)[C@H](O)[C@H]2O)c1O [pyridoxine 4′-α-D-glucoside]
long term stability compared with pyridoxine hydrochloride [1]: superior long term stability

Cc1ncc(CO)c2c1OP(=O)([O-])OC2.[Na+] [pyridoxine 3,4′-cyclic sodium phosphate, Pyridoxine 3,4′-cyclic sodium phosphate]
decomposition after light irradiation [2]: no decomposition was observed
coloring of the aqueous solution after the warming [3]: no coloring was observed
decomposed by warming [3]: almost no decomposition

Cc1ncc(CO)c(CN)c1O[C@@H]1O[C@H](CO)[C@@H](O)[C@H](O)[C@H]1O [pyridoxamine 3-β-D-glucoside, Pyridoxamine 3-β-D-glucoside]
coloring of the aqueous solution after the light irradiation [2]: no coloring was observed
decomposition after light irradiation [2]: not observed
coloring of the aqueous solution after the warming [3]: no coloring was observed
decomposed by warming [3]: almost no decomposition

Cc1ncc(CO)c(C=O)c1O[C@@H]1O[C@H](CO)[C@@H](O)[C@H](O)[C@H]1O [pyridoxal 3-β-D-glucoside, Pyridoxal 3-β-D-glucoside]
coloring of the aqueous solution after the light irradiation [2]: no coloring was observed
coloring of the aqueous solution after the warming [3]: no coloring was observed
decomposed by warming [3]: almost no decomposition

Cc1ncc(CO)c(CO)c1O[C@@H]1O[C@H](CO)[C@@H](O)[C@H](O)[C@H]1O [pyridoxine 3-β-D-glucoside, Pyridoxine 3-β-D-glucoside]
Evaluation (whitening degree of B16 melanoma cells) (mouse B16 melanoma cells [4]; final concentration 10 μg/mL): ×
Cell growth rate (mouse B16 melanoma cells [4]; final concentration 10 μg/mL): 101%
Evaluation (whitening degree of B16 melanoma cells) (mouse B16 melanoma cells [4]; final concentration 30 μg/mL): ×
Cell growth rate (mouse B16 melanoma cells [4]; final concentration 30 μg/mL): 101%
Evaluation (whitening degree of B16 melanoma cells) (mouse B16 melanoma cells [4]; final concentration 100 μg/mL): ×
Cell growth rate (mouse B16 melanoma cells [4]; final concentration 100 μg/mL): 101%
Evaluation (whitening degree of B16 melanoma cells) (mouse B16 melanoma cells [4]; final concentration 300 μg/mL): ±
Cell growth rate (mouse B16 melanoma cells [4]; final concentration 300 μg/mL): 101%
Evaluation (whitening degree of B16 melanoma cells) (mouse B16 melanoma cells [4]; final concentration 1000 μg/mL): +
Cell growth rate (mouse B16 melanoma cells [4]; final concentration 1000 μg/mL): 102%
suppressing effect on melanin production (mouse B16 melanoma cells [4]): superior suppressing effect on melanin production
coloring of the aqueous solution after the light irradiation [2]: no coloring was observed
decomposition after light irradiation [2]: not observed
suppressing effect on melanin production in combination with arbutin (mouse B16 melanoma cells [5]): superior suppressing effect on melanin production
coloring of the aqueous solution after the warming [3]: no coloring was observed
decomposed by warming [3]: almost no decomposition

N-(4-pyridoxylmethylene)-L-serine 3-β-D-glucoside
decomposition after light irradiation [2]: no decomposition was observed

Cc1ncc(CO)c(CO)c1O[C@@H]1O[C@H](CO)[C@@H](O)[C@H](O)[C@H]1O.Cl [pyridoxine 3-β-D-glucoside hydrochloride]
Evaluation (whitening degree of B16 melanoma cells) (mouse B16 melanoma cells [4]; final concentration 100 μg/mL): ×
Cell growth rate (mouse B16 melanoma cells [4]; final concentration 100 μg/mL): 100%
Evaluation (whitening degree of B16 melanoma cells) (mouse B16 melanoma cells [4]; [6]): ×
Cell growth rate (mouse B16 melanoma cells [4]; [6]): 100%
Evaluation (whitening degree of B16 melanoma cells) (mouse B16 melanoma cells [4]; final concentration 1000 μg/mL): ×
Cell growth rate (mouse B16 melanoma cells [4]; final concentration 1000 μg/mL): 97%
Evaluation (whitening degree of B16 melanoma cells) (mouse B16 melanoma cells [4]; final concentration 3333 μg/mL): +
Cell growth rate (mouse B16 melanoma cells [4]; final concentration 3333 μg/mL): 87%
suppressing effect on melanin production (mouse B16 melanoma cells [4]): superior suppressing effect on melanin production
coloring of the aqueous solution after the light irradiation [2]: no coloring was observed
decomposition after light irradiation [2]: not observed
suppressing effect on wrinkle formation (skin photoaging grades) (hairless mouse): comparable to or higher than that of DETAPAC
coloring of the aqueous solution after the warming [3]: no coloring was observed
decomposed by warming [3]: almost no decomposition

Cc1ncc(CO)c(CN)c1O.Cl [pyridoxamine hydrochloride, reference compound]
coloring of the aqueous solution after the warming [3]: colored in yellow
decomposed by warming [3]: ~85%

Cc1ncc(CO)c(CO)c1O[C@@H]1O[C@H](CO)[C@H](O)[C@H](O)[C@H]1O [pyridoxine 3-β-D-galactoside, Pyridoxine 3-β-D-galactoside]
coloring of the aqueous solution after the light irradiation [2]: no coloring was observed
decomposition after light irradiation [2]: not observed
coloring of the aqueous solution after the warming [3]: no coloring was observed
decomposed by warming [3]: almost no decomposition

Cc1ncc(CO)c(C=O)c1O.Cl [pyridoxal hydrochloride, reference compound]
coloring of the aqueous solution after the warming [3]: colored in yellow
decomposed by warming [3]: ~55%
